According to patent publication US20230192638A1, “POLYPHENOLS DERIVATIVES” (Epirium Bio Inc., priority 2021, published 2023):
Like-named read-outs stand apart in the source and are kept apart here.

Test system: PGC-1α
Assay: Single point PGC-1α assay (in-cell ELISA in differentiated C2C12 myotubes)
Assay type: cell-based
Conditions: Mus musculus, each compound tested at 0.01 nM, DMSO control as 100 %
Method: Culture conditions: DMEM containing 25 mM glucose with 10 % FBS supplementation; grown at 37° C. and 5 % CO2.
Assay Conditions: C2C12 cells were cultured in DMEM supplemented in 10 % FBS up to 80 % confluence. The cells were further trypsinized and seeded into a 96 well plate at a density of 5000 cells/well (well volume – 100 µL) (Day 0). Following attachment, the cells were allowed to reach 80-90% confluence in the plate (typically 48 hours post seeding) and further differentiated using DMEM + 2 % Horse Serum (200 µL/well). The media was changed every day or at least every alternate day for 5 days to allow myoblasts to differentiate into myotubes. On day 7 (post seeding), the cells were treated with standards and test compounds for PGC-1α assay.
PGC-1α assay: For the detection of PGC-1α, the cells were incubated with 0.5 µg/ml primary antibody (Merck, WH0010891M3) in PBS-T containing 5 % BSA at 4° C. overnight. The cells were then washed three times with PBS-T for 5 minutes and incubated with 1:1000 dilution secondary antibody (Anti- rabbit IgG, HRP-linked Antibody, Cell Signaling) in PBS-T with 1 % BSA for 1 hour at RT. Cells were washed three times with PBS-T for 5 minutes The cells were incubated with 100 µl TMB substrate solution for 30 minutes and the reaction was stopped with 100 µl of 2N H2SO4. Then the plate was read at 450 nm using ELISA plate reader and absorbance recorded. % activity was calculated using DMSO control as 100 %. (For plate optical density calculations, a background correction was taken at 540 nm). Each compound was tested at a concentration of 0.01 nM.

[1] = average, count 1, read-out: Single point PGC1-Alpha Assay: Average Activity (%)
[2] = read-out: Single point PGC1-Alpha Assay: Activity (%)

`Cc1cc(O)cc(C2Oc3cc(O)cc(O)c3CC2O)c1` (stereo not drawn) showed an activity at 10 pM [1] of 109% and an activity at 10 pM [2] of 109%.

Work on `Cc1cc(O)cc([C@H]2Oc3cc(O)cc(O)c3C[C@H]2O)c1` yielded an activity at 10 pM [1] of 103% and an activity at 10 pM [2] of 103%.

`Cc1cc(O)cc([C@@H]2Oc3cc(O)cc(O)c3C[C@@H]2O)c1` showed an activity at 10 pM [1] of 114% and an activity at 10 pM [2] of 114%.

With `Oc1cc(O)c2c(c1)O[C@@H](c1ccc(F)c(O)c1)[C@@H](O)C2` the activity at 10 pM [1] was 104% and the activity at 10 pM [2] was 104%.

`COc1cc([C@@H]2Oc3cc(O)cc(O)c3C[C@@H]2O)ccc1O` showed an activity at 10 pM [1] of 124% and an activity at 10 pM [2] of 124%.

In the case of `Oc1cc(F)cc([C@@H]2Oc3cc(O)cc(O)c3C[C@@H]2O)c1`, the activity at 10 pM [1] is reported as 117% and the activity at 10 pM [2] is reported as 117%.
